Data from US20070010671A1, “Novel quinazoline derivatives and methods of treatment related to the use thereof” (priority 2003, published 2007).

Target: MCH receptor (Homo sapiens, UniProt Q99705)
Assay: High throughput functional screening FLIPR/FDSS6000: inhibition of MCH-evoked intracellular Ca2+ changes
Format: cell-based
Settings: class by percent of control at 10^-7 M or IC50
In short: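 Antagonism is measured as inhibition of the intracellular calcium rise triggered by 50 nM MCH in cells bearing a constitutively active, non-endogenous form of the receptor. Cells are dye-loaded with Fluo4-AM and exposed to compound for 3 min at 37° C before agonist addition.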

Compound | class
CN(C)c1nc(N[C@H]2CC[C@@H](NC(=S)Nc3cc(F)ccc3Br)CC2)nc2ccccc12 [compound 364] | 2 (Class 2: The value of percent of control at 10^−7 M was from 40% to 60% or the value of IC50 was from 50 nM to 200 nM.)
COc1cccc(CNC(=S)N[C@H]2CC[C@@H](Nc3nc(N(C)C)c4ccccc4n3)CC2)c1OC [compound 292, N-(2,3-dimethoxybenzyl)-N′-(cis-4-{[4-(dimethylamino)quinazolin-2-yl]amino}cyclohexyl)thiourea] | 1 (Class 1: The value of percent of control at 10^−7 M was less than 40% or the value of IC50 was less than 50 nM.)
Cc1ccc(NC(=S)N[C@H]2CC[C@@H](Nc3nc(N(C)C)c4ccccc4n3)CC2)cc1Cl [compound 262] | 2 (Class 2: The value of percent of control at 10^−7 M was from 40% to 60% or the value of IC50 was from 50 nM to 200 nM.)
CN(C)c1nc(N[C@H]2CC[C@@H](CNC(=S)Nc3c(Cl)c(Cl)cc(Cl)c3Cl)CC2)nc2ccccc12 [compound 715] | 1 (Class 1: The value of percent of control at 10^−7 M was less than 40% or the value of IC50 was less than 50 nM.)
CN(C)c1nc(N[C@H]2CC[C@@H](NC(=S)Nc3ccc(Oc4ccc([N+](=O)[O-])cc4)cc3)CC2)nc2ccccc12 [compound 317] | 3 (Class 3: The value of percent of control at 10^−7 M was more than 60% or the value of IC50 was more than 200 nM.)
CC(C)c1ccc(NC(=S)N[C@H]2CC[C@@H](Nc3nc(N(C)C)c4ccccc4n3)CC2)c(Br)c1 [compound 363, N-(2-bromo-4-isopropylphenyl)-N′-(cis-4-{[4-(dimethylamino)quinazolin-2-yl]amino}cyclohexyl)thiourea] | 2 (Class 2: The value of percent of control at 10^−7 M was from 40% to 60% or the value of IC50 was from 50 nM to 200 nM.)
CN(C)c1nc(N[C@H]2CC[C@@H](CNC(=O)Nc3c(Cl)cc(Cl)cc3Cl)CC2)nc2ccccc12 [compound 463, N-[(cis-4-{[4-(dimethylamino)quinazolin-2-yl]amino}cyclohexyl)methyl]-N′-(2,4,6-trichlorophenyl)urea] | 1 (Class 1: The value of percent of control at 10^−7 M was less than 40% or the value of IC50 was less than 50 nM.)
CN(C)c1nc(N[C@H]2CC[C@@H](CNC(=O)Nc3ccc(Oc4ccccc4)cc3)CC2)nc2ccccc12 [compound 453] | 3 (Class 3: The value of percent of control at 10^−7 M was more than 60% or the value of IC50 was more than 200 nM.)
CN(C)c1nc(N[C@H]2CC[C@@H](CNC(=O)Nc3ccccc3Cl)CC2)nc2ccccc12 [compound 419, N-(2-chlorophenyl)-N′-[(cis-4-{[4-(dimethylamino)quinazolin-2-yl]amino}cyclohexyl)methyl]urea] | 1 (Class 1: The value of percent of control at 10^−7 M was less than 40% or the value of IC50 was less than 50 nM.)
CN(C)c1nc(N[C@H]2CC[C@@H](NC(=S)Nc3ccc(C(=O)O)cc3)CC2)nc2ccccc12 [compound 313] | 3 (Class 3: The value of percent of control at 10^−7 M was more than 60% or the value of IC50 was more than 200 nM.)
CN(C)c1nc(N[C@H]2CC[C@@H](NC(=S)Nc3cc(Cl)c(Cl)c(Cl)c3Cl)CC2)nc2ccccc12 [compound 243] | 3 (Class 3: The value of percent of control at 10^−7 M was more than 60% or the value of IC50 was more than 200 nM.)
COc1ccc(NC(=O)NC[C@H]2CC[C@@H](Nc3nc(N(C)C)c4ccccc4n3)CC2)cc1Cl [compound 530] | 3 (Class 3: The value of percent of control at 10^−7 M was more than 60% or the value of IC50 was more than 200 nM.)
CN(C)c1nc(N[C@H]2CC[C@@H](NC(=O)NC3CCN(C(=O)OCc4ccccc4)CC3)CC2)nc2ccccc12 [compound 350] | 3 (Class 3: The value of percent of control at 10^−7 M was more than 60% or the value of IC50 was more than 200 nM.)
COC(=O)[C@H](CCSC)NC(=O)NC[C@H]1CC[C@@H](Nc2nc(N(C)C)c3ccccc3n2)CC1 (relative stereo) [compound 442, methyl N-({[(cis-4-{[4-(dimethylamino)quinazolin-2-yl]amino}cyclohexyl)methyl]amino}carbonyl)methioninate] | 2 (Class 2: The value of percent of control at 10^−7 M was from 40% to 60% or the value of IC50 was from 50 nM to 200 nM.)
CN(C)c1nc(N[C@H]2CC[C@@H](NC(=S)Nc3ccc(F)c(F)c3F)CC2)nc2ccccc12 [compound 209, N-(cis-4-{[4-(dimethylamino)quinazolin-2-yl]amino}cyclohexyl)-N′-(2,3,4-trifluorophenyl)thiourea] | 2 (Class 2: The value of percent of control at 10^−7 M was from 40% to 60% or the value of IC50 was from 50 nM to 200 nM.)
COc1cc([N+](=O)[O-])ccc1NC(=S)N[C@H]1CC[C@@H](Nc2nc(N(C)C)c3ccccc3n2)CC1 [compound 220, N-(cis-4-{[4-(dimethylamino)quinazolin-2-yl]amino}cyclohexyl)-N′-(2-methoxy-4-nitrophenyl)thiourea] | 1 (Class 1: The value of percent of control at 10^−7 M was less than 40% or the value of IC50 was less than 50 nM.)
CN(C)c1nc(N[C@H]2CC[C@@H](CNC(=S)Nc3cc(Cl)cc(Cl)c3)CC2)nc2ccccc12 [compound 647] | 3 (Class 3: The value of percent of control at 10^−7 M was more than 60% or the value of IC50 was more than 200 nM.)
Cc1cc(NC(=S)NC[C@H]2CC[C@@H](Nc3nc(N(C)C)c4ccccc4n3)CC2)ccc1Br [compound 736] | 3 (Class 3: The value of percent of control at 10^−7 M was more than 60% or the value of IC50 was more than 200 nM.)

Same assay, conditions: class by percent of control at 10^-7 M or by IC50; read-out: class

IC50 | Compound
50 to 200 nM | COc1ccc(NC(=O)N[C@H]2CC[C@@H](Nc3nc(N(C)C)c4ccccc4n3)CC2)cc1 [compound 43, N-(cis-4-{[4-(dimethylamino)quinazolin-2-yl]amino}cyclohexyl)-N′-(4-methoxyphenyl)urea]
< 50 nM | CC(C)c1ccccc1NC(=O)N[C@H]1CC[C@@H](Nc2nc(N(C)C)c3ccccc3n2)CC1 [compound 103, N-(cis-4-{[4-(dimethylamino)quinazolin-2-yl]amino}cyclohexyl)-N′-(2-isopropylphenyl)urea]
50 to 200 nM | CN(C)c1nc(N[C@H]2CC[C@@H](NC(=O)NC3c4ccccc4-c4ccccc43)CC2)nc2ccccc12 [compound 841, N-(cis-4-{[4-(dimethylamino)quinazolin-2-yl]amino}cyclonexyl)-N′-9H-fluoren-9-ylurea]
< 50 nM | Cc1ccc([N+](=O)[O-])cc1NC(=O)N[C@H]1CC[C@@H](Nc2nc(N(C)C)c3ccccc3n2)CC1 [compound 109, N-(cis-4-{[4-(dimethylamino)quinazolin-2-yl]amino}cyclohexyl)-N′-(2-methyl-5-nitrophenyl)urea]
> 200 nM | CN(C)c1nc(N[C@H]2CC[C@@H](NC(=S)Nc3ccccc3Cl)CC2)nc2ccccc12 [compound 202]
> 200 nM | CN(C)c1nc(N[C@H]2CC[C@@H](CNC(=S)NCCN3CCOCC3)CC2)nc2ccccc12 [compound 808]
< 50 nM | CN(C)c1nc(N[C@H]2CC[C@@H](NC(=O)Nc3ccc(Oc4ccccc4)cc3)CC2)nc2ccccc12 [compound 53, N-(cis-4-{[4-(dimethylamino)quinazolin-2-yl]amino}cyclohexyl)-N′-(4-phenoxyphenyl)urea]

Same assay, conditions: class by percent of control at 10^−7 M or by IC50; read-out: class

IC50 | Compound
< 50 nM | COc1cccc([C@@H](C)NC(=O)[C@H]2CC[C@@H](Nc3nc(N(C)C)c4ccccc4n3)CC2)c1 [Example 1137, cis-4-{[4-(dimethylamino)quinazolin-2-yl]amino}-N-[(1R)-1-(3-methoxyphenyl)ethyl]cyclohexanecarboxamide]
< 50 nM | COc1cccc(C(=O)N[C@H]2CC[C@@H](Nc3nc(N(C)C)c4cc(F)c(F)cc4n3)CC2)c1 [Example 1208, N-(cis-4-{[4-(dimethylamino)-6,7-difluoroquinazolin-2-yl]amino}cyclohexyl)-3-methoxybenzamide]
50 to 200 nM | CN(C)c1nc(N[C@H]2CC[C@@H](NC(=O)COc3cc(Cl)c(Cl)cc3Cl)CC2)nc2ccccc12 [Example 1077, N-(cis-4-{[4-(dimethylamino)quinazolin-2-yl]amino}cyclohexyl)-2-(2,4,5-trichlorophenoxy)acetamide]
< 50 nM | CN(C)c1nc(N[C@H]2CC[C@@H](C(=O)NCc3c(F)cccc3F)CC2)nc2ccccc12 [Example 1152, cis-N-(2,6-difluorobenzyl)-4-{[4-(dimethylamino)quinazolin-2-yl]amino}cyclohexanecarboxamide]
< 50 nM | CN(C)c1nc(N[C@H]2CC[C@@H](C(=O)NCc3c(F)ccc(Cl)c3F)CC2)nc2ccccc12 [Example 1147, cis-N-(3-chloro-2,6-difluorobenzyl)-4-{[4-(dimethylamino)quinazolin-2-yl]amino}cyclohexanecarboxamide]
< 50 nM | CN(C)c1nc(N[C@H]2CC[C@@H](NC(=O)C(O)c3cccc(C(F)(F)F)c3)CC2)nc2ccccc12 (relative stereo) [Example 1112, N-(cis-4-{[4-(dimethylamino)quinazolin-2-yl]amino}cyclohexyl)-2-hydroxy-2-[3-(trifluoromethyl)phenyl]acetamide]
< 50 nM | CN(C)c1nc(N[C@H]2CC[C@@H](C(=O)NCc3cccc(-c4ccccc4)c3)CC2)nc2ccccc12 [Example 1148, cis-N-(biphenyl-3-ylmethyl)-4-{[4-(dimethylamino)quinazolin-2-yl]amino}cyclohexanecarboxamide]
< 50 nM | CN(C)c1nc(N[C@H]2CC[C@@H](NC(=O)c3cccnc3Oc3ccc(OC(F)(F)F)cc3)CC2)nc2ccccc12 [Example 1037, N-(cis-4-{[4-(dimethylamino)quinazolin-2-yl]amino}cyclohexyl)-2-[4-(trifluoromethoxy)phenoxy]nicotinamide]
< 50 nM | CN(C)c1nc(N[C@H]2CC[C@@H](C(=O)NCc3ccc(Cl)cc3F)CC2)nc2ccccc12 [Example 1164, cis-N-(4-chloro-2-fluorobenzyl)-4-{[4-(dimethylamino)quinazolin-2-yl]amino}cyclohexanecarboxamide]
